Source: patent EP0263213B1, “C20 Through C26 amino steroids” (THE UPJOHN COMPANY, priority 1986, dated 1988)
Counter-ions that a name gives are not always drawn.

Tests used:
arachidonic acid = experiment: Arachidonic Acid Antagonism Assay (AAAA); assay type: in vivo; conditions: male CF-1 mice; for arachidonic acid antagonism: active = elevates the LD50 of sodium arachidonate outside the 95% confidence interval of the control LD50, test compound IV 15 minutes before; for % of Control LD₅₀ 100mg/kg: LD50 of sodium arachidonate, IV
Method: Since these metabolites contribute to the pathological problems associated with stroke, spinal trauma and head injury, compounds which antagonize arachidonic acid are useful in treating stroke, spinal trauma and head injury.
While not necessary to determine arachidonic acid antagonism, the above assay has been modified as follows: Charles River male CF-1 mice weighing 18-22g are treated IV with the test compound dissolved in 1.0% Tween-80 and 0.1% hydrochloric acid in distilled water, 0.2 ml total volume. Fifteen minutes later sodium arachidonate (90% pure) in physiological (normal) saline is injected into the tail vein. The LD₅₀ is measured using the Spearman-Karber method with a log dose interval of 0.05 (N=6). Compounds which elevate the LD₅₀ outside of the 95% confidence interval of the control LD₅₀ are considered to be "active".

rat brain synaptosomes [1] = experiment: Conjugated Diene Formation Assay; assay type: biochemical; conditions: active = inhibits conjugated diene formation by 50% or more; 100 »M (or less) of drug, 100 »M hydrogen peroxide, 200 »M ferrous ammonium sulfate
Source text: The formation of conjugated dienes as assayed by Braughler, J. Neurochem., 44, 1282 (1985), Bucher, Fund. Applied Tox., 3, 222 (1983) and Tein, Arch. Biochem. Biophy., 216, 142 (1982) is a standard pharmacological laboratory procedure useful for identifying compounds which inhibit lipid peroxidation. Since lipid peroxidation is involved in the pathophysiology of central nervous system trauma, compounds which inhibit conjugated diene formation are useful in treating the conditions listed below.
44, 1282 (1985). Synaptosomal suspension (10 »l) is added to 1 ml of physiological (normal) saline containing 1 % Lubrol PX (Sigma Chemical Co. St. Louis, Mo.), 100 »M hydrogen peroxide and 100 »M (or less) of the drug to be tested prepared in either absolute ethanol or water depending upon solubility. The reaction is started by the rapid addition of 200 »M ferrous ammonium sulfate is prepared in argon-purged water. The sample is rapidly mixed and the change in absorbance at 232nm is followied in a Gilford Response Spectrophotometer equipped with a rapid sampler. Due to the rapidity of the reaction, rapid addition of the iron, rapid mixing and sampling are obligatory to the accuracy of the assay. For best results absorbance readings of one/sec should be started within 5 sec following the addition of iron. The initial linear rate of absorbance change during the first 30 sec of reaction are compared with the rate of a reaction containing all reagents except synaptosomes. The difference in rates is the rate of conjugated diene formation. Rates with drug are compared to rates obtained in the absence of drug and the % inhibition is calculated. A compound that inhibits conjugated diene formation by 50% or more is considered to be "active".

rat brain synaptosomes [2] = experiment: Malonyldialdehyde (MDA) Formation Assay; assay type: biochemical; conditions: active = inhibits MDA formation by 50% or more at 200»M or less; 10 min at 37°, pH 7.0, 150 uM Fe+++ and 50 uM Fe++
Method: Since lipid peroxidation is involved in the pathophysiology of central nervous system trauma, compounds which inhibit MDA formation are useful in treating the conditions listed below.
While not necessary to determine MDA formation, the above assays have been modified as follows: rat brain synaptosomes are prepared as described in the Example about the conjugated diene assay, except that the final wash of the synaptosomes and final suspension are in physiological (normal) saline in which the pH has been adjusted to 7.0. The synaptosomes are incubated for 10 min at 37° in physiological (normal) saline pH 7.0 (total volume = 100 ul) containing; 10 ul synaptosomal suspension, 10% DMSO plus or minus drug, 150 uM Fe⁺⁺⁺ and 50 uM Fe++. The incubation is started by the rapid addition of iron to the otherwise complete reaction. The iron solutions are prepared fresh as ferric chloride and ferrous ammonium sulfate in argon-purged water. Following the 10 min incubation, the reaction is stopped by the addition of 500 ul ice-cold 12% trichloroacetic acid prepared in 0.5 N hydrochoric acid. Water (300 ul) is then added along with 100 ul of freshly prepared thiobarbituric acid (3.3% in 0.5N sodium hydroxide) and 10 ul of 5mM desferrioxamine. The sample is then heated in a boiling water bath for 20 minutes. The samples are cooled and centrifuged for 15 minutes at 1500 xg and the absorbance of the supernatant fraction is read at 532 nm. The % inhibition of MDA formation is calculated by dividing the absorbance of sample containing drug by the absorbance of samples incubated without drug. Reaction blanks are samples incubated in the absence of iron. A compound that inhibits MDA formation by 50% or more at a concentration of 200»M or less is considered "active".

ACAT = experiment: AcylCoA:Cholesterol Acyltransferase (ACAT) Inhibition Assay; assay type: cell-based
Source text: ACAT esterifies arterial cholesterol which is a key reaction in the development of atherosclerosis. The procedure of Bell, Can. […] In the ACAT assay it is preferred to use Fu5AH cells, see Lipids 9, 526 (1974). According to this procedure, compounds which inhibit ACAT activity equal to, or greater than, that of chlorpromazine are considered "active".

SMILES | arachidonic acid antagonism (arachidonic acid) | inhibition of MDA formation (rat brain synaptosomes [2]) | further results
CCN(CC)c1cc(N2CCN(CC(=O)[C@@]3(O)CC[C@H]4[C@@H]5CCC6=CC(=O)CC[C@]6(C)C5=CC[C@@]43C)CC2)nc(N)n1 [Example 4, 21-[4-[2-Amino-6-(diethylamino)-4-pyrimidinyl]-1-piperazinyl]-17α-hydroxypregna-4,9(11)-diene-3,20-dione] | demonstrate arachidonic acid antagonism | – | inhibition of conjugated diene formation (rat brain synaptosomes [1]): demonstrate such activity by inhibition of conjugated dienes
C[C@]12C=CC(=O)C=C1CC[C@@H]1[C@@H]2[C@@H](O)C[C@@]2(C)[C@H]1CC[C@]2(O)C(=O)CN1CCN(c2ccccn2)CC1 [Example 25, 11β,17α-dihydroxy-21-[4-(2-pyridinyl)-1-piperazinyl]-pregna-1,4-diene-3,20-dione dihydrochloride] | demonstrate arachidonic acid antagonism | – | –
CCN(CC)c1nc(N2CCCCC2)cc(N2CCN(CC(=O)[C@@]3(O)CC[C@H]4[C@@H]5CCC6=CC(=O)CC[C@]6(C)C5=CC[C@@]43C)CC2)n1.Cl.O [Example 17] | – | demonstrate such activity by inhibition of MDA formation | % of Control LD₅₀ 100mg/kg (arachidonic acid): 150%; % Inhibition of ACAT (5 »g/ml) (ACAT; 5 »g/ml): 32.2%; inhibiting ACAT (ACAT; active = inhibits ACAT activity equal to, or greater than, that of chlorpromazine): active in inhibiting ACAT
C[C@]12CCC(=O)C=C1CC[C@@H]1C2=CC[C@]2(C)[C@@H](CCN3CCN(c4cc(N5CCCC5)nc(N5CCCC5)n4)CC3)CC[C@@H]12.Cl [Example 104, 21-[4-(2,6-Bis(1-pyrrolidinyl)-4-pyrimidinyl)-1-piperazinyl]pregna-4,9(11)-dien-3-one hydrochloride] | – | demonstrate such activity by inhibition of MDA formation | –
CC(CN1CCN(c2cc(N3CCCC3)nc(N3CCCC3)n2)CC1)[C@H]1CC[C@H]2[C@@H]3CCC4=CC(=O)C=C[C@]4(C)[C@H]3CC[C@]12C.CS(=O)(=O)O.O (stereo partly drawn) [Example 112] | – | – | inhibition of conjugated diene formation (rat brain synaptosomes [1]): demonstrate such activity by inhibition of conjugated dienes
C[C@@H]1C[C@H]2[C@@H]3CCC4=CC(=O)C=C[C@]4(C)[C@H]3[C@H](O)C[C@]2(C)[C@H]1C(=O)CN1CCN(c2cc(N3CCCC3)nc(N3CCCC3)n2)CC1 [Example 84] | – | – | inhibition of conjugated diene formation (rat brain synaptosomes [1]): demonstrate such activity by inhibition of conjugated dienes
C[C@@H]1C[C@H]2[C@@H]3CCC4=CC(=O)C=C[C@]4(C)[C@H]3CC[C@]2(C)[C@H]1C(=O)CN1CCN(c2cc(N3CCCC3)nc(N3CCCC3)n2)CC1.Cl.Cl [Example 121] | – | demonstrate such activity by inhibition of MDA formation | –
COc1cccc(N2CCN(CC(=O)[C@@]3(O)CC[C@H]4[C@@H]5CCC6=CC(=O)CC[C@]6(C)C5=CC[C@@]43C)CC2)n1.CS(=O)(=O)O [Example 22, 17α-hydroxy-21-[4-(6-methoxy-2-pyridinyl)-1-piperazinyl]pregna-4,9(11)-diene-3,20-dione monomethanesulfonate] | demonstrate arachidonic acid antagonism | – | –
CCNc1cccnc1N1CCN(CC(=O)[C@H]2[C@H](C)C[C@H]3[C@@H]4CCC5=CC(=O)C=C[C@]5(C)C4=CC[C@@]32C)CC1.Cl [Example 127, 21-[4-[3-(Ethylamino)-2-pyridinyl]piperazinyl]-16α-methylpregna-1,4,9(11)-triene-3,20-dione hydrochloride] | – | demonstrate such activity by inhibition of MDA formation | –
C[C@]12CCC(=O)C=C1CC[C@@H]1[C@@H]2[C@H](O)C[C@@]2(C)[C@H]1CC[C@]2(O)C(=O)CN1CCN(c2ccc(F)cc2)CC1 [Example 29, 21-[4-(4-fluorophenyl)-1-piperazinyl]-11α,17α-dihydroxypregn-4-ene-3,20-dione dihydrochloride] | demonstrate arachidonic acid antagonism | – | –
COc1ccc2c(c1)CC[C@@H]1[C@@H]2CC[C@@]2(C)[C@H]1CC[C@]2(O)C(=O)CN1CCN(c2cc(N3CCCC3)nc(N3CCCC3)n2)CC1 [Example 125] | – | demonstrate such activity by inhibition of MDA formation | –
C[C@]12C=CC(=O)C=C1CC[C@@H]1C2=CC[C@]2(C)[C@@H](C(=O)CN3CCN(c4cc(N5CCCC5)nc(N5CCCC5)n4)CC3)CC[C@@H]12.Cl.Cl [Example 111] | – | – | inhibition of conjugated diene formation (rat brain synaptosomes [1]): demonstrate such activity by inhibition of conjugated dienes
C[C@]12CC[C@H]3[C@@H](CCC4=CC(=O)CC[C@@]43C)[C@@H]1CC[C@@H]2CCN1CCN(c2cc(N3CCCC3)nc(N3CCCC3)n2)CC1.Cl [Example 107] | – | demonstrate such activity by inhibition of MDA formation | –
C[C@H]1C[C@H]2[C@@H]3C[C@H](F)C4=CC(=O)CC[C@]4(C)C3=CC[C@]2(C)[C@@]1(O)C(=O)CN1CCN(c2cc(N3CCCC3)nc(N3CCCC3)n2)CC1.Cl.Cl [Example 118] | – | demonstrate such activity by inhibition of MDA formation | –
CN1CCN(c2cc(N3CCN(CC(=O)[C@@]4(O)CC[C@H]5[C@@H]6CCC7=CC(=O)CC[C@]7(C)C6=CC[C@@]54C)CC3)nc(N3CCN(C)CC3)n2)CC1.CS(=O)(=O)O.O [Example 19, 17α-Hydroxy-21-[4-[2,6-bis(4-methyl-1-piperazinyl)-4-pyrimidinyl]-1-piperazinyl]pregna-4,9(11)diene-3,20-dione methanesulfonate hydrate] | demonstrate arachidonic acid antagonism | – | % of Control LD₅₀ 100mg/kg (arachidonic acid): 141%
C[C@]12CCC(=O)C=C1CC[C@@H]1C2=CC[C@@]2(C)[C@H]1CC[C@]2(O)C(=O)CN1CCC(O)(c2ccc(C(F)(F)F)cc2)CC1 [Example 5, 17α-Hydroxy-21-[4-hydroxy-4-(4-trifluoromethyl)phenyl-1-piperidinyl]pregna-4,9(11)-diene-3,20-dione] | – | – | inhibition of conjugated diene formation (rat brain synaptosomes [1]): demonstrate such activity by inhibition of conjugated dienes
C[C@]12CC[C@@H]3c4ccc(O)cc4CC[C@H]3[C@@H]1CC[C@]2(O)C(=O)CN1CCN(c2cc(N3CCCC3)nc(N3CCCC3)n2)CC1 [Example 129, 3,17α-Dihydroxy-21-[4-[2,6-bis(1-pyrrolidinyl)-4-pyrimidinyl]-1-piperazinyl]-19-norpregna-1,3,5-(10)-trien-20-one (E)-2-butenedioate 1:1 salt] | – | demonstrate such activity by inhibition of MDA formation | –
C[C@@]12C(=CC(=O)C[C@@H]1C#N)CC[C@@H]1C2=CC[C@]2(C)[C@@H](CCN3CCN(c4cc(N5CCCC5)nc(N5CCCC5)n4)CC3)CC[C@@H]12.Cl.Cl.Cl.O [Example 110] | – | demonstrate such activity by inhibition of MDA formation | –
C[C@H]1C[C@@H]2[C@H]([C@@H](O)C[C@@]3(C)[C@H]2CC[C@]3(O)C(=O)CN2CCN(c3ccccn3)CC2)[C@@]2(C)C=CC(=O)C=C12 [Example 21, 11β-17α-dihydroxy-6α-methyl-21-[4-(2-pyridinyl)-1-piperazinyl]pregna-1,4-diene-3,20-dione] | demonstrate arachidonic acid antagonism | – | –
